From ChEMBL document CHEMBL1152046, “Pyrrolooctahydroisoquinolines as potent and selective opioid receptor ligands: SAR analysis and docking studies” (Bioorg Med Chem Lett, 1997)

How the values were obtained:
[1] = biological target: Delta-type opioid receptor (Mus musculus, UniProt P32300); test: inhibition of [3H]DADLE binding to delta-opioid receptor of mouse brain homogenates
[2] = biological target: Kappa-type opioid receptor (Mus musculus, UniProt P33534); test: Binding affinity against Kappa opioid receptor using [3H]U-69593 radioligand in mouse brain homogenates; assay type: tissue-based
Sequence of Kappa-type opioid receptor (P33534 whole entry): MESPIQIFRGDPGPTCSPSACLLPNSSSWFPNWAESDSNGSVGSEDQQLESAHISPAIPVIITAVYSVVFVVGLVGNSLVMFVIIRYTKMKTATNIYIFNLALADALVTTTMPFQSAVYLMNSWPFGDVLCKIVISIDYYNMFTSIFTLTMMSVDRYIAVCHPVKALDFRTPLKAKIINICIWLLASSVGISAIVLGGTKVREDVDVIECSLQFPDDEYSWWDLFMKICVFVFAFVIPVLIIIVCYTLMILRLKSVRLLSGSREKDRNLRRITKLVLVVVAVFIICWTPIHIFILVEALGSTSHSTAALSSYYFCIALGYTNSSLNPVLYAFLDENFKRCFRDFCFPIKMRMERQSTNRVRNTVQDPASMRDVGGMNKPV

Mu-type opioid receptor = Mu-type opioid receptor (Mus musculus, UniProt P42866); test: Inhibition of [3H]DAMGO from mouse brain homogenate Mu opioid receptor
Sequence of Mu-type opioid receptor (P42866 whole entry): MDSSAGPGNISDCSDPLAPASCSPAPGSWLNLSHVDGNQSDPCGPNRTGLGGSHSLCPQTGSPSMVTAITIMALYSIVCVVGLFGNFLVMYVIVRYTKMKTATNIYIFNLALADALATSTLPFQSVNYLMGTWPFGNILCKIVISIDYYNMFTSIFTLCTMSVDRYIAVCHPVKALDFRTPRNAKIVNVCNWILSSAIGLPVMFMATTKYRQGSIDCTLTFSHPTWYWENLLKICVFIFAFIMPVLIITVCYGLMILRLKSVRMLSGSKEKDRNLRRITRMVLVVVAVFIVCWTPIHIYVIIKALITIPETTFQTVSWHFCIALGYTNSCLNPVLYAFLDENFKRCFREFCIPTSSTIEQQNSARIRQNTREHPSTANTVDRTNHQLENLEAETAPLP

Sequence of Delta-type opioid receptor (P32300 whole entry): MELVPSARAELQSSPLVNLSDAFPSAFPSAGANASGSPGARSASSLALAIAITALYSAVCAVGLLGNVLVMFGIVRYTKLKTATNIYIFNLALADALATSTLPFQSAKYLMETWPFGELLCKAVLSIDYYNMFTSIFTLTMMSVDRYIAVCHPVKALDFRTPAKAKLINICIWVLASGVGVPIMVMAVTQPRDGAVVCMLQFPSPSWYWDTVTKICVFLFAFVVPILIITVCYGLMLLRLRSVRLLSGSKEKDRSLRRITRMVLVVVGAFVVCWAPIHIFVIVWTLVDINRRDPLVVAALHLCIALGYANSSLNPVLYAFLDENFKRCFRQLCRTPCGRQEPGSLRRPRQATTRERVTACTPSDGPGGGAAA

SMILES | Ki [1] [nM] | Ki [2] [nM] | Ki (Mu-type opioid receptor) [nM]
CCOC(=O)c1[nH]c2c(c1C)C[C@@]1(c3cccc(O)c3)CCN(CC)C[C@@H]1C2 | 2.4 | 169 | 141
CCN1CC[C@]2(c3cccc(O)c3)Cc3c([nH]c(C(=S)N(CC)CC)c3C)C[C@H]2C1 | 1.5 | 449 | 42
CN1CC[C@]2(c3cccc(O)c3)Cc3nc4ccccc4cc3C[C@H]2C1 | 0.23 | 312 | 59.6
CCN1CC[C@]2(c3cccc(O)c3)Cc3[nH]c(C(N)=O)c(C)c3C[C@H]2C1 | 15.1 | 70.4 | 139
CCN(CC)C(=O)c1[nH]c2c(c1C)C[C@@]1(c3cccc(O)c3)CCN(C)C[C@@H]1C2 | 3 | > 1000 | 89.4
CCN1CC[C@]2(c3cccc(O)c3)Cc3[nH]c(C(=O)N(CC)CC)c(C)c3C[C@H]2C1 | 0.95 |  | 
CCN1CC[C@]2(c3cccc(O)c3)Cc3[nH]c(C(=O)N(C(C)C)C(C)C)c(C)c3C[C@H]2C1 | 2.6 | > 1000 | 57.9
CCN1CC[C@]2(c3cccc(O)c3)Cc3[nH]c(C(=O)N(C)C)c(C)c3C[C@H]2C1 | 6.8 | > 1000 | 580
